Data on one molecule can be found in patent EP4740940A1, “POLLEN PARTICLES AS CARRIERS FOR PULMONARY DELIVERY” (Universidade de Santiago de Compostela, priority 2023, dated 2025).

≈ marks a conversion by molar mass, not a printed value.

One data set has as its system M. phlei, M. smegmatis. The data set is described as follows: Resazurin-based microdilution growth inhibition assay. Type of data set: cell-based. Conditions: for IC50 / IC90: strain and unit inferred. Here is the method: The antibacterial activity of the microparticles of the invention with rifabutin (and of the nanosystems) was evaluated in the strain that grows rapidly, M. phlei, and in the strain that grows slowly, M. smegmatis, using a resazurin-based microdilution assay according to the EUCAST guidelines and CSLI guidelines with slight modifications. This is a quick and objective method, and the minimum inhibitory concentration (MIC) is easily detectable because resazurin (blue) turns into resorufin (pink fluorescence) in the presence of viable bacteria. The microparticles of the invention with rifabutin were diluted in a cation-adjusted 2X Mueller-Hinton broth (CaMHB) until reaching a final antibiotic concentration of 32 mg/L. Since the range of susceptibility of Mycobacterium species to rifabutin is ≤0.25-16 mg/L, the highest tested antibiotic concentration was 16 mg/L. A bacterial suspension (in CaMHB) was diluted to a final concentration of 5 × 10^5 CFU/mL. For efficacy determination, the following controls were used: (i) growth control (without treatment), (ii) sterility control (CaMHB), (iii) positive control for inhibitory effect (free rifabutin in solution), and as well as (iv) the microparticles of the invention (without rifabutin), so as to take into account the possible effects of the microparticles of the invention on bacterial growth. […] Fluorescence intensity was measured at 560 and 590 nm of excitation and monitored using the FLUOR®star Omega multimode lector (Biotron Healthcare, India) and the MARS data analysis software, after an incubation period of 30 min at 37°C. The lowest concentration at which color change was observed was considered the minimum inhibitory concentration (MIC) value. Furthermore, IC50 was calculated using an online tool: "Quest Graph™ IC50 Calculator". AAT Bioquest, Inc.
On the technique in general: The colour change of resazurin is a common sign of viable cells or microbes.

The conditions of data set [1]: cited from earlier work.
For another data set, the system named is RAW 264.7 cells. The data set is described as follows: MTT cytotoxicity assay. Type of data set: cell-based. The settings on record: 12.5 µg/mL rifabutin. The procedure: To ensure that the microparticles of the invention can be safely used for pharmaceutical uses, MTT was used to investigate their cytotoxicity in Raw264.7 cells. In that sense, the in vitro toxicity of the microparticles of the invention, prepared according to Example 4, was evaluated by means of an MTT colorimetric assay, quantifying the water-insoluble formazan in RAW 264.7 cells after 24 hours of incubation of different particle concentrations. Cells were seeded (10,000 cells/well) 24 h before the experiment in a 96-well plate in a DMEM culture medium (10% FBS and 1% penicillin/streptomycin) at […] 37°C and 5% CO2. The medium was then replaced with the formulations and the cells were incubated for 24 hours. Fresh medium was used as negative control and Triton x100 (1% v/v) was used as positive control. After 24 h, 0.5 mg/mL of MTT dissolved in PBS were added, and the cells were incubated for 4 h at 37°C in darkness. Formazan crystals were dissolved by means of adding HCl 0.04 N in isopropanol and absorbance was measured at 570 nm using a microplate reader (Synergy H1 Hybrid Multi-Mode, BioTek, Winooski, VT, USA). Cell viability (%) was calculated following the equation: Cell viability (%) = (Sample absorbance−Negative control absorbance)/(Positive control absorbance−Negative control absorbance) × 100 [formula]

Another data set has as its system Mycobacterium species. The settings on record: cited from earlier work.
For another data set, the system named is Mycobacterium smegmatis. The experiment in a line: Biofilm disruption, crystal violet assay. Type of data set: cell-based. On the set-up: MIC: unit not given beside the values. The procedure: In these experiments, the antimicrobial potential of the system was evaluated in Mycobacterium smegmatis used as a model of M. tuberculosis as they have homologous genes. The biofilm formation potential of Mycobacterium smegmatis was evaluated by scanning electron microscopy and the formation thereof was quantified with crystal violet, using 96-well plates made of polyvinyl chloride.
A crystal violet-based spectrophotometric study was used. To that end, M. smegmatis was inoculated in liquid culture (5 mL of 7H9 medium supplemented with OACC) and left to grow to exponential phase. The culture was diluted 1:100 and 100 µL were pipetted into each well. The controls were the rifabutin-free formulations and the blank was the bacterial culture-free medium. After incubating for two days at 37°C and once the biofilm was formed, the plates were washed with distilled water to remove planktonic cells and 200 µL of each formulation were added in serial dilutions (in the same manner as above). After 24 h, the plate was washed with water again to remove possible planktonic cells, and the biofilm was stained with 125 µL of 0.1% crystal violet solution and incubated for 10 min at room temperature. It was the washed with water and stirred vigorously. Finally, remaining crystal violet was solubilized by adding 200 µL of 95% ethanol and incubating for 15 min at room temperature. The solution was then transferred to a 96-well, flat-bottom plate, and biofilm formation was measured at 570 nm.

The mark [2] stands for this setting: Mycolicibacterium smegmatis, Biofilm culture, unit inferred.

Regarding `CO[C@H]1/C=C/O[C@@]2(C)Oc3c(C)c(O)c4c(c3C2=O)C2=NC3(CCN(CC(C)C)CC3)NC2=C(NC(=O)/C(C)=C\C=C\[C@H](C)[C@H](O)[C@@H](C)[C@@H](O)[C@@H](C)[C@H](OC(C)=O)[C@@H]1C)C4=O` [Rifabutin], the MIC against M. phlei, M. smegmatis (2-day preinoculum, strain and unit not given) was determined as 4; against M. phlei, M. smegmatis (4-day preinoculum, strain and unit not given), 4; against M. phlei, M. smegmatis (Preinoculum culture t=0, strain and unit not printed in table (method: mg/L)), 1; against Mycobacterium smegmatis (Biofilm culture, unit not given) it was 4. Besides, the IC50 (usually the point on the concentration scale where inhibition reaches its midpoint) in the data set on M. phlei, M. smegmatis (48 h, 2-day preinoculum) came to 2.24 µg/mL (≈ 2.64 µM); with M. phlei, M. smegmatis (96 h, 4-day preinoculum), 2.04 µg/mL (≈ 2.41 µM); in the data set on M. phlei, M. smegmatis (Preinoculum culture t=0) it was 0.34 µg/mL (≈ 0.401 µM); in the data set on Mycobacterium smegmatis (setting [2]) it was 4.67 µg/mL (≈ 5.51 µM). Besides, the IC90 – broadly, the concentration at which the effect reaches the 90% level – with M. phlei, M. smegmatis (48 h, 2-day preinoculum) is 20.2 µg/mL (≈ 23.8 µM); in the data set on M. phlei, M. smegmatis (96 h, 4-day preinoculum) it was 18.4 µg/mL (≈ 21.7 µM); in the data set on M. phlei, M. smegmatis (Preinoculum culture t=0), 3.06 µg/mL (≈ 3.61 µM); in the data set on Mycobacterium smegmatis (setting [2]), 42 µg/mL (≈ 49.6 µM). Further, in data set [1], the “oral bioavailability (reaches systemic circulation)” value is reported as “less than 20%”. Also, in the data set on RAW 264.7 cells, the viability (as a rule, the share of living cells, or the viability signal relative to a control) is over 50%. For the same molecule, in the data set with Mycobacterium species, the “range of susceptibility of Mycobacterium species to rifabutin” value is 0.25 to 16 mg/L. In addition, the “difference between culture with rifabutin in suspension and without treatment” value in the data set with Mycobacterium smegmatis (2 mg/mL) is given as “hardly any differences”.
